{
  "source": "patent US20240366495A1",
  "about": "“COMPOSITION FOR AMELIORATING WRINKLES USING FERMENTED EXTRACT OF CANNABIS STEM AND PREPARATION METHOD THEREOF” (KOREA INSTITUTE OF SCIENCE AND TECHNOLOGY, priority 2023, published 2024)",
  "key": {"[1]": {"system": "human dermal fibroblasts (HDFs)", "settings": "sample 0 to 1000 μg/mL, 24 hours, MTT, FIG. 1 / FIG. 2", "procedure": "First, the cytotoxicity of each sample was confirmed using the following method. After human dermal fibroblasts (HDFs) were cultured in a 96-well culture plate at a concentration of 1.5×10^4 cells/well for 24 hours to reach a clustering coefficient of 70 to 80%, and then the sample prepared in Example 1 was treated at a concentration of 0 to 1000 μg/mL, and cultured in an incubator (37° C., 5% CO2) for an additional 24 hours. […] The absorbance of each well was measured at 570 nm using a microplate reader."}, "HDFs": {"system": "HDFs", "assay": "Observation of cell morphology changes after UVB irradiation", "format": "cell-based, human", "settings": "highest non-cytotoxic concentration, UVB 25 mJ/cm^2 after 2 hours, cultured 24 hours, FIG. 3", "procedure": "An experiment for confirming an anti-wrinkle effect was conducted on each sample confirmed in Example 1."}},
  "data": [
    {"compound": "O=C1O[C@H]([C@@H](O)CO)C(O)=C1O", "note": "[vitamin C]", "values": [
      {"measurement": "concentration at which cytotoxicity is exhibited", "setting": "[1]", "value": "≥ 500", "unit": "µg/mL"},
      {"measurement": "number of cells after UVB irradiation", "setting": "HDFs", "value": "number of cells increased to the level of the untreated group"}
    ]}
  ]
}
